compound: C[C@@H](C(=O)N[C@@H](C1CCCCC1)C(=O)N2CCC[C@H]2C(=O)N[C@@H]3[C@@H](CC4=CC=CC=C34)OCC#CC#CCO[C@@H]5CC6=CC=CC=C6[C@@H]5NC(=O)[C@@H]7CCCN7C(=O)[C@H](C8CCCCC8)NC(=O)[C@H](C)NC)NC [AZD5582] + CS(=O)(=O)CCNCc1ccc(-c2ccc3ncnc(Nc4ccc(OCc5cccc(F)c5)c(Cl)c4)c3c2)o1 [Lapatinib] (partner 2 µM); assay: relative viability (nuclei count vs DMSO), 5 days (fraction); higher = more cells survive; conditions: first compound 0.001581 µM
Method in brief: (§1)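 After 5 days of treatment, lung cancer cells in 1536-well plates were fixed and stained in a single step (final 0.05% Triton X-100, 1% formaldehyde, 1 ug/ml Hoechst) and their nuclei counted on 4× images. Treatment had been applied by pin tool the day after seeding as one drug alone or as a fixed anchor-drug dose with five library-drug doses (not always all listed) in √10 steps. Relative viability is the nuclei count of treated wells divided by that of vehicle wells, and values are medians of duplicate plates.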

Cell Line	relative viability
SK-MES-1	0.492
SW 1573	0.954
UMC-11	0.89

same assay, conditions: first compound 0.005 µM

Cell Line	relative viability
SK-MES-1	0.648
SW 1573	1.28
UMC-11	0.976

same assay, conditions: first compound 0.01581 µM

Cell Line	relative viability
SK-MES-1	0.455
SW 1573	1.24
UMC-11	0.851

same assay, conditions: first compound 0.05 µM

Cell Line	relative viability
SK-MES-1	0.571
SW 1573	1.09
UMC-11	1.01

compound: C[C@@H](C(=O)N[C@@H](C1CCCCC1)C(=O)N2CCC[C@H]2C(=O)N[C@@H]3[C@@H](CC4=CC=CC=C34)OCC#CC#CCO[C@@H]5CC6=CC=CC=C6[C@@H]5NC(=O)[C@@H]7CCCN7C(=O)[C@H](C8CCCCC8)NC(=O)[C@H](C)NC)NC [AZD5582] + C[C@@H](Oc1cc(-c2cnn(C3CCNCC3)c2)cnc1N)c1c(Cl)ccc(F)c1Cl [Crizotinib] (partner 1 µM); assay: as above; conditions: first compound 0.001581 µM
Method in brief: as §1

Cell Line	relative viability
SK-MES-1	0.992
SW 1573	0.686
UMC-11	0.534

same assay, conditions: first compound 0.005 µM

Cell Line	relative viability
SK-MES-1	1.02
SW 1573	0.717
UMC-11	0.671

same assay, conditions: first compound 0.01581 µM

Cell Line	relative viability
SK-MES-1	0.941
SW 1573	0.815
UMC-11	0.578

same assay, conditions: first compound 0.05 µM

Cell Line	relative viability
SK-MES-1	1.04
SW 1573	0.858
UMC-11	0.493

compound: C[C@@H](C(=O)N[C@@H](C1CCCCC1)C(=O)N2CCC[C@H]2C(=O)N[C@@H]3[C@@H](CC4=CC=CC=C34)OCC#CC#CCO[C@@H]5CC6=CC=CC=C6[C@@H]5NC(=O)[C@@H]7CCCN7C(=O)[C@H](C8CCCCC8)NC(=O)[C@H](C)NC)NC [AZD5582] + C[C@]1(O)C[C@@H](c2nc(-c3ccc4ccc(-c5ccccc5)nc4c3)c3c(N)nccn32)C1 [Linsitinib] (partner 1 µM); assay: as above; conditions: first compound 0.001581 µM
Method in brief: as §1

Cell Line	relative viability
SK-MES-1	1.1
SW 1573	0.918
UMC-11	0.931

same assay, conditions: first compound 0.005 µM

Cell Line	relative viability
SK-MES-1	1.16
SW 1573	0.834
UMC-11	1.07

same assay, conditions: first compound 0.01581 µM

Cell Line	relative viability
SK-MES-1	1.04
SW 1573	0.801
UMC-11	0.96

same assay, conditions: first compound 0.05 µM

Cell Line	relative viability
SK-MES-1	1.17
SW 1573	0.916
UMC-11	1.11

compound: Cn1nnc2c(C(N)=O)ncn2c1=O [Temozolomide] + COc1cccc2cc(-c3nc([C@H]4CC[C@H](C(=O)O)CC4)n4ncnc(N)c34)[nH]c12 [OSI-027] (partner 0.5 µM); assay: as above; conditions: first compound 0.2 µM
Method in brief: as §1

Cell Line	relative viability
SK-MES-1	0.694
SW 1573	0.672
UMC-11	0.554

same assay, conditions: first compound 0.6325 µM

Cell Line	relative viability
SK-MES-1	0.624
SW 1573	0.66
UMC-11	0.469

same assay, conditions: first compound 2 µM

Cell Line	relative viability
SK-MES-1	0.642
SW 1573	0.734
UMC-11	0.566

same assay, conditions: first compound 6.325 µM

Cell Line	relative viability
SK-MES-1	0.591
SW 1573	0.608
UMC-11	0.467

same assay, conditions: first compound 20 µM

Cell Line	relative viability
SK-MES-1	0.65
SW 1573	0.721
UMC-11	0.447

From the supplement of paper PMC10307832
